From the RepoRT retention time repository (doi:10.1021/acs.analchem.1c00972)

Experiment: RP, Waters ACQUITY UPLC BEH C18, 100 × 1 mm, 1.7 µm, 50 °C, 0.3 mL/min, estimated dead time 0.17 min; A: water + 0.1% formic acid + 20 mM ammonium formate; B: methanol + 0.1% formic acid + 20 mM ammonium formate; gradient (min/%B) 0/0 15/100 21/100 22/0 30/0
Conditions: stereoisomer not certain

SMILES | LC retention time [min]
Cc1cc2n[nH]nc2cc1C [5,6-Dimethyl-1,1,1-benzotriazol] | 11.2
Cc1ccc(OP(=O)(Oc2ccccc2)Oc2ccc(C)cc2)cc1 [Ditolyl phenyl phosphate] | 14
COP(N)(=S)Oc1ccccc1C(=O)OC(C)C (centres undefined) [Isocarbophos] | 13.2
CC12CCC3=C4CCC(=O)C=C4CCC3C1CCC2(O)CC#N (centres undefined) [Dienogest] | 12.6
Nc1cc(Cl)cc(Cl)c1 [3,5-Dichloroaniline] | 17.6
O=C(O)c1cccnc1Oc1cccc(C(F)(F)F)c1 [Diflufenican-metabolite] | 13.2
CNC(=O)ON=C(SC)C(=O)N(C)C [Oxamyl] | 7.21
CCOP(=S)(NC(C)C)Oc1ccccc1C(=O)OC(C)C (centres undefined) [Isofenphos (-ethyl)] | 16
CCCCCCCCc1ccc(O)cc1 [4-n-Octylphenol] | 16.9
CC(C)OC(=O)NC(C(=O)NC(C)c1nc2ccc(F)cc2s1)C(C)C (centres undefined) [Benthiavalicarb-Isopropyl] | 14.5
CCOP(=O)(O)OCC [Diethyl phopshate] | 16.3
CC(C)(C)NCC(O)c1ccc(O)c(CO)c1 (centres undefined) [Albuterol] | 6
Cc1ccccc1C(=O)Nc1cccc(OC(C)C)c1 [Mepronil] | 14.4
CC(=O)OCC(=O)C1(O)C(C)CC2C3CCC4=CC(=O)C=CC4(C)C3(F)C(O)CC21C (centres undefined) [Betamethasone-21-acetate] | 14.1
CCC(C)n1c(=O)[nH]c(C)c(Br)c1=O (centres undefined) [Bromacil] | 11.5
CNC(=O)NCc1cnc(Cl)s1 | 7.69
CCOC(=O)C1(c2ccccc2)CCC=CC1N(C)C (centres undefined) [Tilidine] | 9.57
CCNC(=O)C(C)Oc1cccc2ccccc12 (centres undefined) [Desethyl-napropamide] | 14
CCNc1nc(Cl)nc(NC(C)(C)C#N)n1 [Cyanazin] | 11.3
COc1nn(CSP(=S)(OC)OC)c(=O)s1 [Methidation] | 13.2

SMILES | LC retention time [min]
O=C(NC1CCCCC1)NC1CCCCC1 [Dicyclohexylurea] | 14
Nc1ccc2nc3c(N)cccc3nc2c1 [1,7-Diaminophenazine] | 8.24
CCCCCCCCn1sc(Cl)c(Cl)c1=O [DCOIT] | 17
COP(=O)(OC)Oc1nc(Cl)c(Cl)cc1Cl [Chlorpyrifos-methyl-oxon] | 13.7
CN(C)C(=O)Nc1ccc(-n2nc(C(C)(C)C)oc2=O)c(Cl)c1 [Dimefuron] | 13.6
CSc1nc(NC(C)C)nc(NC(C)C)n1 [Prometryne] | 14.2
Cc1ccccc1OP(=O)(Oc1ccccc1C)Oc1ccccc1C [Tris(2-methylphenyl) phosphate (tri-o-cresyl phosphate)] | 17
CC(c1ccc(O)cc1)c1ccc(O)cc1 [Bisphenol E] | 11.5
CC(C)(C)c1cc(-n2nc3ccccc3n2)c(O)c(C(C)(C)C)c1 [UV-320] | 19.8
CCN(CC)C(=O)Nc1ccc(OCC(O)CNC(C)(C)C)c(C(C)=O)c1 (centres undefined) [Celiprolol] | 9.97
Cc1csc(C)c1NC(=O)CCl [Dimethenamid-N-dealkylation] | 10.2
CC=C(C)C(=O)OC1CC[N+]2([O-])CC=C(COC(=O)C(O)(C(C)O)C(C)(C)O)C12 (centres undefined) [Echimidine N-oxide] | 9.37
C=CC12CN(C)C3C4COC(CC41)C1(C(=O)Nc4ccccc41)C32 (centres undefined) [Gelsemine] | 7.38
Cn1sccc1=O [2-Methyl-4-isothiazolin-3-one] | 3.3
CC(C)(C)c1ccc(CCOc2ncnc3ccccc23)cc1 [Fenazaquin] | 17.8
CN(C)CCc1ccc(O)cc1 [Hordenine] | 3.04
CC(Oc1ccc(Oc2ccc(Cl)cc2Cl)cc1)C(=O)O (centres undefined) [Diclofop] | 14.3
CCc1cccc(CC)c1N(COC)C(=O)CS(=O)(=O)O [Alachlor tert-sulfonic acid (ESA)] | 11.8
Cc1cc(Cl)ccc1N=CN(C)C [Chlordimeform] | 8.37
c1ccc2scnc2c1 [Benzothiazole] | 10.8

SMILES | LC retention time [min]
Cc1ccc(OP(=O)(Oc2ccccc2)Oc2ccccc2)cc1 [Diphenyltolyl phosphate] | 16.3
CCOC(=O)CC(SP(=S)(OC)OC)C(=O)OCC (centres undefined) [Malathion] | 14.3
CC(C)(N)CN [1,2-Diamino-2-methylpropane] | 18.5
CCOP(=S)(OCC)Oc1nc(Cl)c(Cl)cc1Cl [Chlorpyriphos-ethyl] | 17.1
CCCCOc1ccc(CC(=O)NO)cc1 [Bufexamac] | 12.6
Nc1ccc(Br)cc1 [4-Bromoaniline] | 8.49
CC(=O)Oc1ccccc1C(=O)O [Acetylsalicyls<e4>ure] | 16.5
O=C(O)c1ccc2ncsc2c1 [Benzothiazole-6-carbons<e4>ure] | 9.32
CCc1cc(C)cc(CC)c1-c1c(OC(=O)C(C)(C)C)n2n(c1=O)CCOCC2 [Pinoxaden] | 10.5
CNC(=O)ON=C(CSC)C(C)(C)C [Thiofanox] | 11.7
Cc1cccc(O)c1 [3-Methylphenol] | 14.3
CN(C)c1ccccc1 [N,N-Dimethylaniline] | 2.5
O=c1cc(-c2ccccc2)c2c(O)cc(O)cc2o1 [5,7-Dihydroxy-4-phenylcoumarin] | 12.1
O=P(O)(O)CCCl [Ethephon] | 2.01
CC(C=CC1=C(C)CCCC1(C)C)=CC=CC(C)=CC(=O)O [9-cis-Retinoic acid] | 16
CCOP(=S)(OCC)SCCSCC [Disulfoton] | 16
Nc1ccc(C=Cc2ccc(N)cc2S(=O)(=O)O)c(S(=O)(=O)O)c1 [4,4'-Diaminostilbene-2,2'-disulfonic acid] | 9.71
COCC(C)N(C(=O)CS(=O)(=O)O)c1c(C)csc1C (centres undefined) [Dimethenamid-M 27 (ESA)] | 10.8

Further lines, results first:

LC retention time [min] | SMILES
9.82 | CC(C)(C)c1n[nH]c(=O)n(N)c1=O [Metribuzin-diketo]
19.2 | CCCCCCCCCCCCCCCCCC(=O)OCC(O)CO (centres undefined) [Glyceryl monostearate]
18.6 | CCCCCCCCCCCCCCCC(=O)OCC(O)CO (centres undefined) [Glyceryl-1-monopalmitate]
8 | NC(=O)Cc1c[nH]c2ccccc12 [indoleacetamide]
14.3 | C=CNc1nc(NC(C)(C)C)nc(SC)n1 [Terbutryn-desaturated]
6.4 | CC=C(C)C(=O)NCC(=O)O [N-Tigloylglycine]
21.3 | CCC(C=CC(C)C1CCC2C3CC=C4CC(O)CCC4(C)C3CCC12C)C(C)C (centres undefined) [Stigmasterol]
3.58 | Nc1nc2c(ncn2CCC(CO)CO)c(=O)[nH]1 [Penciclovir]
13.2 | CCOC(=O)C1CC(=O)C(=C(O)C2CC2)C(=O)C1 (centres undefined) [Trinexapac-ethyl]
5.5 | COC1CC(OC2C(C)OC(OC3C(C)=CCC4CC(CC5(CCC(C)C(C(C)C)O5)O4)OC(=O)C4C=C(C)C(O)C5OCC(=CC=CC3C)C45O)CC2OC)OC(C)C1O (centres undefined) [Ivermectin B1b]
15.3 | CCOC(=O)OC1(C(=O)COC(=O)CC)CCC2C3CCC4=CC(=O)C=CC4(C)C3C(O)CC21C (centres undefined) [Prednicarbate]
14.5 | C1=Cc2ccccc2Nc2ccccc21 [Iminostilbene]
16.2 | O=C(O)c1ccccc1Nc1cccc(C(F)(F)F)c1 [Flufenamic acid]
11.8 | CNC(=O)N(C)c1nnc(C(F)(F)F)s1 [Thiazafluron]
13.2 | COc1ccc(-c2coc3cc(O)ccc3c2=O)cc1 [Formononetin]
7.5 | O=C(O)/C=C/c1cccc(O)c1 [trans-3-Hydroxycinnamic acid]

LC retention time [min] | SMILES
9.75 | CC1OC(OCC2OC(Oc3c(-c4ccc(O)c(O)c4)oc4cc(O)cc(O)c4c3=O)C(O)C(O)C2O)C(O)C(O)C1O (centres undefined) [Rutin]
11.8 | [O-][n+]1nc(-n2ccnc2)nc2ccc(Cl)cc21 [Triazoxide]
5.18 | Cn1ncc(N)c(Cl)c1=O [Methyl-Desphenyl-Chloridazon]
19.9 | CCCCC(CC)COP(=O)(OCC(CC)CCCC)OCC(CC)CCCC (centres undefined) [Tris(2-Ethylhexyl) phosphate]
5 | C=CC1CNC(=S)O1 (centres undefined) [Goitrin]
8.48 | CCC=Nc1c([N+](=O)[O-])cc(C)c(C)c1[N+](=O)[O-] [Pendimethalin-desethyl]
9.5 | C=CC1CN2CCC1CC2C(O)c1ccnc2ccc(OC)cc12 (centres undefined) [quinidine]
13.4 | CC(=O)OCC(=O)C1(O)CCC2C3CCC4=CC(=O)CCC4(C)C3C(O)CC21C (centres undefined) [Hydrocortisonacetate]
8.7 | NC(Cc1ccccc1)C(=O)N1CCCC1C(=O)O (centres undefined) [Phe-Pro]
14.3 | CON=C(Cc1cccnc1)c1ccc(Cl)cc1Cl [Pyrifenox]
18.4 | CCCCCCCCCCCCCCCC(=O)NCCO [Palmitoylethanolamide]
12.4 | CC12C=CC(=O)C=C1CCC1C2C(O)CC2(C)C1CCC2(O)C(=O)CO (centres undefined) [Prednisolone]
8.04 | Cc1cn(C2CC(N=[N+]=[N-])C(CO)O2)c(=O)[nH]c1=O (centres undefined) [Zidovudine]
13.6 | CCOc1ccc2ccccc2c1C(=O)NC1C(=O)N2C1SC(C)(C)C2C(=O)O (centres undefined) [Nafcillin]
12.8 | COC(=O)c1ccc(CNS(C)(=O)=O)cc1S(=O)(=O)NC(=O)Nc1nc(OC)cc(OC)n1 [Mesosulfuron-methyl]
